{
  "source": "patent US20250255867A1",
  "about": "(Kadmon Corporation, LLC, priority 2022, published 2025)",
  "details": "Cohort 1 200 mg QD",
  "data": [
    {"smiles": "CC(C)NC(=O)COc1cccc(-c2nc(Nc3ccc4[nH]ncc4c3)c3ccccc3n2)c1", "note": "[Belumosudil, 2-{3-[4-(1H-indazol-5-ylamino)-2-quinazolinyl]phenoxy}-N-(propan-2-yl) acetamide]", "values": [
      {"measurement": "SAE Lipomatosis, # events", "value": 1},
      {"measurement": "SAE Lipomatosis, affected/at risk", "value": "1/17"},
      {"measurement": "SAE Metastases to meninges, # events", "value": 1},
      {"measurement": "SAE Metastases to meninges, affected/at risk", "value": "1/17"},
      {"measurement": "SAE Muscular weakness, # events", "value": 0},
      {"measurement": "SAE Muscular weakness, affected/at risk", "value": "0/17"},
      {"measurement": "SAE Myelodysplastic syndrome, # events", "value": 0},
      {"measurement": "SAE Myelodysplastic syndrome, affected/at risk", "value": "0/17"},
      {"measurement": "SAE Non-cardiac chest pain, # events", "value": 0},
      {"measurement": "SAE Non-cardiac chest pain, affected/at risk", "value": "0/17"},
      {"measurement": "SAE Obliterative bronchiolitis, # events", "value": 1},
      {"measurement": "SAE Obliterative bronchiolitis, affected/at risk", "value": "1/17"},
      {"measurement": "SAE Pericardial effusion, # events", "value": 0},
      {"measurement": "SAE Pericardial effusion, affected/at risk", "value": "0/17"},
      {"measurement": "SAE Pleural effusion, # events", "value": 0},
      {"measurement": "SAE Pleural effusion, affected/at risk", "value": "0/17"},
      {"measurement": "SAE Pneumonia viral, # events", "value": 0},
      {"measurement": "SAE Pneumonia viral, affected/at risk", "value": "0/17"},
      {"measurement": "SAE Pneumonia, # events", "value": 2},
      {"measurement": "SAE Pneumonia, affected/at risk", "value": "1/17"},
      {"measurement": "SAE Pregnancy of partner, # events", "value": 0},
      {"measurement": "SAE Pregnancy of partner, affected/at risk", "value": "0/17"},
      {"measurement": "SAE Proteinuria, # events", "value": 1},
      {"measurement": "SAE Proteinuria, affected/at risk", "value": "1/17"},
      {"measurement": "SAE Respirovirus test positive, # events", "value": 0},
      {"measurement": "SAE Respirovirus test positive, affected/at risk", "value": "0/17"},
      {"measurement": "SAE Small intestinal obstruction, # events", "value": 0},
      {"measurement": "SAE Small intestinal obstruction, affected/at risk", "value": "0/17"},
      {"measurement": "SAE Stenotrophomonas infection, # events", "value": 0},
      {"measurement": "SAE Stenotrophomonas infection, affected/at risk", "value": "0/17"},
      {"measurement": "SAE Urinary retention, # events", "value": 0},
      {"measurement": "SAE Urinary retention, affected/at risk", "value": "0/17"},
      {"measurement": "SAE Urinary tract infection, # events", "value": 0},
      {"measurement": "SAE Urinary tract infection, affected/at risk", "value": "0/17"},
      {"measurement": "SAE Varicella zoster virus infection, # events", "value": 0},
      {"measurement": "SAE Varicella zoster virus infection, affected/at risk", "value": "0/17"},
      {"measurement": "SAE total, affected/at risk", "value": "5/17"},
      {"measurement": "Sinus pain: # Events", "value": 2},
      {"measurement": "Sinus pain: Affected/At Risk", "value": "2/17"},
      {"measurement": "Sinus pain: Affected/At Risk (%)", "value": "(11.76%)"},
      {"measurement": "Sinusitis: # Events", "value": 1},
      {"measurement": "Sinusitis: Affected/At Risk", "value": "1/17"},
      {"measurement": "Sinusitis: Affected/At Risk (%)", "value": "(5.88%)"},
      {"measurement": "Skin abrasion: # Events", "value": 0},
      {"measurement": "Skin abrasion: Affected/At Risk", "value": "0/17"},
      {"measurement": "Skin abrasion: Affected/At Risk (%)", "value": "(0%)"},
      {"measurement": "Skin lesion: # Events", "value": 0},
      {"measurement": "Skin lesion: Affected/At Risk", "value": "0/17"},
      {"measurement": "Skin lesion: Affected/At Risk (%)", "value": "(0%)"},
      {"measurement": "Skin papilloma: # Events", "value": 1},
      {"measurement": "Skin papilloma: Affected/At Risk", "value": "1/17"},
      {"measurement": "Skin papilloma: Affected/At Risk (%)", "value": "(5.88%)"},
      {"measurement": "Spinal compression fracture: # Events", "value": 1},
      {"measurement": "Spinal compression fracture: Affected/At Risk", "value": "1/17"},
      {"measurement": "Spinal compression fracture: Affected/At Risk (%)", "value": "(5.88%)"},
      {"measurement": "Squamous cell carcinoma of skin: # Events", "value": 0},
      {"measurement": "Squamous cell carcinoma of skin: Affected/At Risk", "value": "0/17"},
      {"measurement": "Squamous cell carcinoma of skin: Affected/At Risk (%)", "value": "(0%)"},
      {"measurement": "Stomatitis: # Events", "value": 2},
      {"measurement": "Stomatitis: Affected/At Risk", "value": "1/17"},
      {"measurement": "Stomatitis: Affected/At Risk (%)", "value": "(5.88%)"},
      {"measurement": "Superior vena cava syndrome: # Events", "value": 0},
      {"measurement": "Superior vena cava syndrome: Affected/At Risk", "value": "0/17"},
      {"measurement": "Superior vena cava syndrome: Affected/At Risk (%)", "value": "(0%)"},
      {"measurement": "Tachycardia: # Events", "value": 0},
      {"measurement": "Tachycardia: Affected/At Risk", "value": "0/17"},
      {"measurement": "Tachycardia: Affected/At Risk (%)", "value": "(0%)"},
      {"measurement": "Tendonitis: # Events", "value": 0},
      {"measurement": "Tendonitis: Affected/At Risk", "value": "0/17"},
      {"measurement": "Tendonitis: Affected/At Risk (%)", "value": "(0%)"},
      {"measurement": "Testicular pain: # Events", "value": 1},
      {"measurement": "Testicular pain: Affected/At Risk", "value": "1/17"},
      {"measurement": "Testicular pain: Affected/At Risk (%)", "value": "(5.88%)"},
      {"measurement": "Testicular swelling: # Events", "value": 1},
      {"measurement": "Testicular swelling: Affected/At Risk", "value": "1/17"},
      {"measurement": "Testicular swelling: Affected/At Risk (%)", "value": "(5.88%)"},
      {"measurement": "Thoracic spinal stenosis: # Events", "value": 1},
      {"measurement": "Thoracic spinal stenosis: Affected/At Risk", "value": "1/17"},
      {"measurement": "Thoracic spinal stenosis: Affected/At Risk (%)", "value": "(5.88%)"},
      {"measurement": "Thrombocytopenia: # Events", "value": 0},
      {"measurement": "Thrombocytopenia: Affected/At Risk", "value": "0/17"},
      {"measurement": "Thrombocytopenia: Affected/At Risk (%)", "value": "(0%)"},
      {"measurement": "Thrombocytosis: # Events", "value": 1},
      {"measurement": "Thrombocytosis: Affected/At Risk", "value": "1/17"},
      {"measurement": "Thrombocytosis: Affected/At Risk (%)", "value": "(5.88%)"},
      {"measurement": "Tinea pedis: # Events", "value": 0},
      {"measurement": "Tinea pedis: Affected/At Risk", "value": "0/17"},
      {"measurement": "Tinea pedis: Affected/At Risk (%)", "value": "(0%)"},
      {"measurement": "Tooth fracture: # Events", "value": 0},
      {"measurement": "Tooth fracture: Affected/At Risk", "value": "0/17"},
      {"measurement": "Tooth fracture: Affected/At Risk (%)", "value": "(0%)"},
      {"measurement": "Total Other Adverse Events: Affected/At Risk", "value": "17/17"},
      {"measurement": "Total Other Adverse Events: Affected/At Risk (%)", "value": "(100%)"},
      {"measurement": "Transfusion reaction: # Events", "value": 1},
      {"measurement": "Transfusion reaction: Affected/At Risk", "value": "1/17"},
      {"measurement": "Transfusion reaction: Affected/At Risk (%)", "value": "(5.88%)"},
      {"measurement": "Tremor: # Events", "value": 3},
      {"measurement": "Tremor: Affected/At Risk", "value": "2/17"},
      {"measurement": "Tremor: Affected/At Risk (%)", "value": "(11.76%)"},
      {"measurement": "Type 2 diabetes mellitus: # Events", "value": 1},
      {"measurement": "Type 2 diabetes mellitus: Affected/At Risk", "value": "1/17"},
      {"measurement": "Type 2 diabetes mellitus: Affected/At Risk (%)", "value": "(5.88%)"},
      {"measurement": "Ulcerative keratitis: # Events", "value": 0},
      {"measurement": "Ulcerative keratitis: Affected/At Risk", "value": "0/17"},
      {"measurement": "Ulcerative keratitis: Affected/At Risk (%)", "value": "(0%)"},
      {"measurement": "Upper respiratory tract infection: # Events", "value": 16},
      {"measurement": "Upper respiratory tract infection: Affected/At Risk", "value": "9/17"},
      {"measurement": "Upper respiratory tract infection: Affected/At Risk (%)", "value": "(52.94%)"},
      {"measurement": "Upper-airway cough syndrome: # Events", "value": 0},
      {"measurement": "Upper-airway cough syndrome: Affected/At Risk", "value": "0/17"},
      {"measurement": "Upper-airway cough syndrome: Affected/At Risk (%)", "value": "(0%)"},
      {"measurement": "Urinary retention: # Events", "value": 0},
      {"measurement": "Urinary retention: Affected/At Risk", "value": "0/17"},
      {"measurement": "Urinary retention: Affected/At Risk (%)", "value": "(0%)"},
      {"measurement": "Urinary tract infection: # Events", "value": 0},
      {"measurement": "Urinary tract infection: Affected/At Risk", "value": "0/17"},
      {"measurement": "Urinary tract infection: Affected/At Risk (%)", "value": "(0%)"},
      {"measurement": "Urinary tract pain: # Events", "value": 0},
      {"measurement": "Urinary tract pain: Affected/At Risk", "value": "0/17"},
      {"measurement": "Urinary tract pain: Affected/At Risk (%)", "value": "(0%)"},
      {"measurement": "Urine output decreased: # Events", "value": 1},
      {"measurement": "Urine output decreased: Affected/At Risk", "value": "1/17"},
      {"measurement": "Urine output decreased: Affected/At Risk (%)", "value": "(5.88%)"},
      {"measurement": "Vascular access complication: # Events", "value": 0},
      {"measurement": "Vascular access complication: Affected/At Risk", "value": "0/17"},
      {"measurement": "Vascular access complication: Affected/At Risk (%)", "value": "(0%)"},
      {"measurement": "Vertigo: # Events", "value": 2},
      {"measurement": "Vertigo: Affected/At Risk", "value": "2/17"},
      {"measurement": "Vertigo: Affected/At Risk (%)", "value": "(11.76%)"},
      {"measurement": "Vision blurred: # Events", "value": 0},
      {"measurement": "Vision blurred: Affected/At Risk", "value": "0/17"},
      {"measurement": "Vision blurred: Affected/At Risk (%)", "value": "(0%)"},
      {"measurement": "Vomiting: # Events", "value": 4},
      {"measurement": "Vomiting: Affected/At Risk", "value": "2/17"},
      {"measurement": "Vomiting: Affected/At Risk (%)", "value": "(11.76%)"},
      {"measurement": "Weight decreased: # Events", "value": 1},
      {"measurement": "Weight decreased: Affected/At Risk", "value": "1/17"}
    ]}
  ]
}
